The values that follow come from patent US20250382296A1, “NITROGEN-CONTAINING FUSED THREE RING PRMT5 INHIBITOR, AND PREPARATION METHOD THEREFOR AND PHARMACEUTICAL USE THEREOF” (Abbisko Therapeutics Co., Ltd., priority 2022, published 2025).

Assay [1] deals with HCT 116 wild-type MTAP cells. As to the kind of experiment: Inhibition of proliferation of HCT116 wild-type MTAP cells (CellTiter-Glo, 6 days). In kind it is cell-based. To be noted: Homo sapiens, HCT-116, 144 h. Here is the method:
(§1) 1. HCT 116 MTAP-knockout cells and HCT 116 wild-type MTAP cells were plated in 96-well flat-bottom plates and cultured overnight at 37° C. and […] in McCoy's 5A medium containing 10% fetal bovine serum+1% penicillin-streptomycin.
(§2) 2. The next day, compounds were each dissolved in DMSO, diluted successively with DMSO and medium and then transferred to cell plates; the final concentration of each compound was 10 μM, 4-fold dilution was performed to obtain 9 concentration points, and a DMSO control was provided.
(§3) 3. Cells not treated with compound were subjected to CellTiter-Glo Luminescent Cell Viability Assay (Promega) to detect the cell viability, and reference was made to the kit instructions for the operation; the plates were then placed on an EnVision Multilabel Reader to detect luminescence signals.
(§4) 4. Meanwhile, the cell plates containing cells treated with compounds were cultured continuously at 37° C. and […] CO2 for 6 days.
(§5) 5. Then, the cell viability was also detected by CellTiter-Glo.
(§6) 6. Finally, dose response curves were plotted using the four parameter dose response curve module of GraphPad Prism v 9.2.0 software and proliferation inhibition IC50 (unit: nM) was calculated.

Assay [2] relates to HCT 116 MTAP-knockout cells. Briefly: Inhibition of proliferation of HCT116 MTAP-knockout cells (CellTiter-Glo, 6 days). In kind it is cell-based, human. To be noted: for IC50: Homo sapiens, HCT-116, 144 h, proliferation inhibition, HCT116 MTAP-knockout, 6 days, CellTiter-Glo; for Selectivity: IC50 HCT116 wild-type cells / IC50 HCT116 MTAP-knockout cells. As to the method: as §1, §2, §3, §4, §5, §6

Consider `Cn1cc(N(Cc2ccc(C(F)(F)F)cn2)C(=O)c2ccc3nc(N)c4cncn4c3c2)cn1` [Example 149, 4-amino-N-(1-methyl-1H-pyrazol-4-yl)-N-((5-(trifluoromethyl)pyridin-2-yl)methyl)imidazo[1,5-a]quinoxaline-8-carboxamide], for which half-maximal inhibition in assay [1] (IC50) was put at 7210 nM. In assay [2], this compound came in with an IC50 of 50 nM and a Selectivity of 144.1.

In turn, `CCC(C1CC1)N(Cc1ccc(C(F)(F)F)cn1)C(=O)c1ccc2nc(N)c3cncn3c2c1` (stereo not drawn) [Example 154, 4-amino-N-(1-cyclopropylpropyl)-N-((5-(trifluoromethyl)pyridin-2-yl)methyl)imidazo[1,5-a]quinoxaline-8-carboxamide] gave a half-maximal inhibitory concentration (IC50) in assay [1] of 406 nM. In assay [2], the 50% inhibitory concentration (IC50) was found to be 22 nM and the Selectivity is 18.5.

`Nc1nc2ccc(C(=O)N(Cc3ccc(C(F)(F)F)nn3)CC3CC3)cc2n2cncc12` [Example 156, 4-amino-N-(cyclopropylmethyl)-N-((6-(trifluoromethyl)pyridazin-3-yl)methyl)imidazo[1,5-a]quinoxaline-8-carboxamide]: it took 1610 nM to reach half-maximal inhibition in assay [1] (IC50). Further, in assay [2], the midpoint of inhibition, the IC50, lay at 10 nM and the Selectivity was 160.7.

In assay [1], `Nc1nc2cc(F)c(C(=O)N(Cc3ccc(C(F)(F)F)cn3)CC3CC3)cc2n2cncc12` [Example 163, 4-amino-N-(cyclopropylmethyl)-7-fluoro-N-((5-(trifluoromethyl)pyridin-2-yl)methyl)imidazo[1,5-a]quinoxaline-8-carboxamide] registered an IC50 of 330 nM. Also, in assay [2], half-maximal inhibition (IC50) was put at 6 nM and the Selectivity was 55.

Take `Cc1cc2nc(N)c3cncn3c2cc1C(=O)N(Cc1ccc(C(F)(F)F)cn1)CC1CC1` [Example 164, 4-amino-N-(cyclopropylmethyl)-7-methyl-N-((5-(trifluoromethyl)pyridin-2-yl)methyl)imidazo[1,5-a]quinoxaline-8-carboxamide]: in assay [1], the IC50 was found to be 706 nM. Besides, in assay [2], the IC50 is 8 nM and the Selectivity worked out at 88.3.

In assay [1], `Nc1nc2cc(Cl)c(C(=O)N(Cc3ccc(C(F)(F)F)cn3)CC3CC3)cc2n2cncc12` [Example 165, 4-amino-7-chloro-N-(cyclopropylmethyl)-N-((5-(trifluoromethyl)pyridin-2-yl)methyl)imidazo[1,5-a]quinoxaline-8-carboxamide] came in with an IC50 of 358 nM. Further, in assay [2], it took 11 nM to reach half-maximal inhibition (IC50) and the Selectivity was found to be 32.5.

For `Cc1ncc2c(N)nc3ccc(C(=O)N(Cc4ccc(C(F)(F)F)cn4)CC4CC4)cc3n12` [Example 167, 4-amino-N-(cyclopropylmethyl)-1-methyl-N-((5-(trifluoromethyl)pyridin-2-yl)methyl)imidazo[1,5-a]quinoxaline-8-carboxamide], the IC50 in assay [1] is 2710 nM. In assay [2], the IC50 came to 74 nM and the Selectivity was determined as 36.6.

Consider `Cc1ncc2c(N)nc3cc(F)c(C(=O)N(Cc4ccc(C(F)(F)F)cn4)CC4CC4)cc3n12` [Example 168, 4-amino-N-(cyclopropylmethyl)-7-fluoro-1-methyl-N-((5-(trifluoromethyl)pyridin-2-yl)methyl)imidazo[1,5-a]quinoxaline-8-carboxamide], for which the IC50 in assay [1] came to 7910 nM. Moreover, in assay [2], the IC50 is 111 nM and the Selectivity was determined as 71.3.

In the case of `Cc1cc2nc(N)c3cnc(C)n3c2cc1C(=O)N(Cc1ccc(C(F)(F)F)cn1)CC1CC1` [Example 169, 4-amino-N-(cyclopropylmethyl)-1,7-dimethyl-N-((5-(trifluoromethyl)pyridin-2-yl)methyl)imidazo[1,5-a]quinoxaline-8-carboxamide], the IC50 in assay [1] turned out to be 1880 nM; in assay [2] it was 35 nM. The Selectivity in assay [2] turned out to be 53.6.

On to `CN(C(=O)c1ccc2nc(N)c3cncn3c2c1)C1COCc2cc(C(F)(F)F)ccc21` (stereo not drawn) [Example 179, 4-amino-N-methyl-N-(7-(trifluoromethyl)isochroman-4-yl)imidazo[1,5-a]quinoxaline-8-carboxamide], for which the IC50 in assay [1] was found to be 3720 nM. In assay [2], this compound showed an IC50 of 67 nM and a Selectivity of 55.5.

Consider `Nc1nc2ccc(C(=O)N(CC3CC3)[C@@H]3COc4nc(C(F)(F)F)ccc43)cc2n2cncc12` [Example 181a, (S)-4-amino-N-(cyclopropylmethyl)-N-(6-(trifluoromethyl)-2,3-dihydrofuro[2,3-b]pyridin-3-yl)imidazo[1,5-a]quinoxaline-8-carboxamide], for which the IC50 came to 5100 nM in assay [1] and 330 nM in assay [2]. For the same compound, the Selectivity in assay [2] came to 15.5.

For the compound `Cc1cc2nc(N)c3cncn3c2cc1C(=O)N(c1cnn(C)c1)[C@@H]1COc2nc(C(F)(F)F)ccc21` [Example 206a, (S)-4-amino-7-methyl-N-(1-methyl-1H-pyrazol-4-yl)-N-(6-(trifluoromethyl)-2,3-dihydrofuro[2,3-b]pyridin-3-yl)imidazo[1,5-a]quinoxaline-8-carboxamide], 2240 nM corresponded to half-maximal inhibition in assay [1] (IC50). In assay [2], this compound came in with a 50% inhibitory concentration (IC50) of 41 nM and a Selectivity of 54.5.

Turning to `Cc1cc2nc(N)c3cncn3c2cc1C(=O)N(c1cnn(C)c1)[C@@H]1COc2cc(C(F)(F)F)ccc21` [Example 207a, (S)-4-amino-7-methyl-N-(1-methyl-1H-pyrazol-4-yl)-N-(6-(trifluoromethyl)-2,3-dihydrobenzofuran-3-yl)imidazo[1,5-a]quinoxaline-8-carboxamide], in assay [1], the midpoint of inhibition, the IC50, lay at 70 nM. In assay [2], this compound showed a half-maximal inhibitory concentration (IC50) of 2 nM and a Selectivity of 35.

`CCn1cc(N(C(=O)c2ccc3nc(N)c4cncn4c3c2)[C@@H]2COc3cc(C(F)(F)F)ccc32)cn1` [Example 208a, (S)-4-amino-N-(1-ethyl-1H-pyrazol-4-yl)-N-(6-(trifluoromethyl)-2,3-dihydrobenzofuran-3-yl)imidazo[1,5-a]quinoxaline-8-carboxamide]: the IC50 was 523 nM in assay [1] and 5 nM in assay [2]. In assay [2], this compound yielded a Selectivity of 104.6.

Compound `Cn1cc(N(C(=O)c2cc3c(cc2Cl)nc(N)c2cncn23)[C@@H]2COc3cc(C(F)(F)F)ccc32)cn1` [Example 210a, (S)-4-amino-7-chloro-N-(1-methyl-1H-pyrazol-4-yl)-N-(6-(trifluoromethyl)-2,3-dihydrobenzofuran-3-yl)imidazo[1,5-a]quinoxaline-8-carboxamide] registered an IC50 in assay [1] of 59 nM. In assay [2], this compound gave an IC50 of 1 nM and a Selectivity of 59.

With `Cn1cc(N(C(=O)c2cc3c(cc2Cl)nc(N)c2cncn23)[C@@H]2COc3nc(C(F)(F)F)ccc32)cn1` [Example 211a, (S)-4-amino-7-chloro-N-(1-methyl-1H-pyrazol-4-yl)-N-(6-(trifluoromethyl)-2,3-dihydrofuro[2,3-b]pyridin-3-yl)imidazo[1,5-a]quinoxaline-8-carboxamide], in assay [1], the IC50 amounted to 1330 nM. In assay [2], this compound gave an IC50 of 19 nM and a Selectivity of 69.9.

As to `Nc1nc2cc(Cl)c(C(=O)N(Cc3ccc(C(F)(F)F)nn3)CC3CC3)cc2n2cncc12` [Example 212, 4-amino-7-chloro-N-(cyclopropylmethyl)-N-((6-(trifluoromethyl)pyridazin-3-yl)methyl)imidazo[1,5-a]quinoxaline-8-carboxamide], the half-maximal inhibitory concentration (IC50) in assay [1] came out at 383 nM; in assay [2], 8 nM. In assay [2], this compound registered a Selectivity of 47.9.

Regarding `Cc1cc2nc(N)c3cncn3c2cc1C(=O)N(Cc1ccc(C(F)(F)F)nn1)CC1CC1` [Example 213, 4-amino-N-(cyclopropylmethyl)-7-methyl-N-((6-(trifluoromethyl)pyridazin-3-yl)methyl)imidazo[1,5-a]quinoxaline-8-carboxamide], the IC50 in assay [1] came to 1320 nM. In assay [2], this compound returned a half-maximal inhibitory concentration (IC50) of 15 nM and a Selectivity of 87.9.

For `CN(C(=O)c1ccc2nc(N)c3cncn3c2c1)C1COc2cc(-c3cnn(C)c3)ccc21` (stereo not drawn) [Example 214, 4-amino-N-methyl-N-(6-(1-methyl-1H-pyrazol-4-yl)-2,3-dihydrobenzofuran-3-yl)imidazo[1,5-a]quinoxaline-8-carboxamide], the IC50 in assay [1] was greater than 10000 nM. Also, in assay [2], it took 188 nM to reach half-maximal inhibition (IC50) and the Selectivity is greater than 53.1.

`Nc1nc2cc(F)c(C(=O)N(Cc3ccc(C(F)(F)F)nn3)CC3CC3)cc2n2cncc12` [Example 215, 4-amino-N-(cyclopropylmethyl)-7-fluoro-N-((6-(trifluoromethyl)pyridazin-3-yl)methyl)imidazo[1,5-a]quinoxaline-8-carboxamide]: the IC50 in assay [1] amounted to 314 nM; in assay [2], 8 nM. Moreover, the Selectivity in assay [2] is on record as 39.3.

`Nc1nc2ccc(C(=O)N(c3cn[nH]c3)[C@@H]3COc4cc(C(F)(F)F)ccc43)cc2n2cncc12` [Example 216, (S)-4-amino-N-(1H-pyrazol-4-yl)-N-(6-(trifluoromethyl)-2,3-dihydrobenzofuran-3-yl)imidazo[1,5-a]quinoxaline-8-carboxamide]: half-maximal inhibition in assay [1] (IC50) was put at 1080 nM. Also, in assay [2], the half-maximal inhibitory concentration (IC50) was 11 nM and the Selectivity turned out to be 98.3.
